Test results as given in PMC9293634, “Conformational flexibility in carbapenem hydrolysis drives substrate specificity of the class D carbapenemase OXA-24/40” (The Journal of Biological Chemistry, 2022).

Experiments:
OXA-24/40 [1] = molecular target: T1, OXA-24/40 (Acinetobacter baumannii, UniProt Q8RLA6, K84D); test: X-ray crystal structure of acyl-enzyme ([…] Å); type: binding
T1 construct: gene blaOXA-33

OXA-24/40 [2] = molecular target: T1, OXA-24/40; test: X-ray crystal structure ([…] Å), intact β-lactam; type: binding

T1 sequence (Q8RLA6 32-275 K84D): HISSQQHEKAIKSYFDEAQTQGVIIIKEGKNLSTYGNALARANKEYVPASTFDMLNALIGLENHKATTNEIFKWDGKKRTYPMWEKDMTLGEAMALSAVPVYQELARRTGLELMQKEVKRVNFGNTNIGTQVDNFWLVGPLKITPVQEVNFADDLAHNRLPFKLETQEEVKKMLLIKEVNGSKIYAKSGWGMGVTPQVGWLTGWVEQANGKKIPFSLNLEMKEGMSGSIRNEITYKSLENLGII

| Structure (SMILES) | X-ray crystal structure of acyl-enzyme (2.28 Å) (OXA-24/40 [1]) | X-ray crystal structure (2.58 Å), intact β-lactam (OXA-24/40 [2]) |
| --- | --- | --- |
| C[C@@H](O)[C@H]1C(=O)N2C(C(=O)O)=C(SCCN=CN)C[C@H]12 [imipenem] | A predominant conformation for imipenem was observed in the K84D complex | – |
| C[C@@H](O)[C@H]1C(=O)N2C(C(=O)O)=C(S[C@@H]3CN[C@H](C(=O)Nc4cccc(C(=O)O)c4)C3)[C@H](C)[C@H]12 [ertapenem] | – | In the K84D–ertapenem structure, ertapenem is bound as an intact β-lactam, yet in an unproductive binding mode |
